Patent US10308899B2, “Liquid automatic dish washing detergent compositions” (Novozymes A/S, priority 2013, dated 2019)
Residue numbers refer to the chain shown, from its start. Primed or numbered codes have the meaning given here. The star is where a group is joined. aldehyde′ = not defined here; Cbz = O=C(OCc1ccccc1)*; Moc = COC(=O)*

Legend:
[1] = logarithmic stability constant of the cation/chelator complex; ionic strength of 0.1 M, 25° C.; cited from earlier work
[2] = molecular target: Protease4 (subtilisin BPN′) (Bacillus amyloliquefaciens, UniProt P00782, Y324L); assay: Storage stability of Protease4 in liquid ADW detergent (residual protease activity, N,N-dimethylcasein hydrolysis); type: biochemical; details: Detergent A, Example 2
Excerpt: (§1) Chemicals used as buffers and substrates were commercial products of at least reagent grade. Protease1, Protease2, Protease3, and Protease4, as used in the examples below, are subtilisin proteases. Protease1 has the amino acid sequence shown in SEQ ID NO: 1 (subtilisin 309). Protease2 has the amino acid sequence shown in SEQ ID NO: 2 (variant of subtilisin 309). Protease3 has the amino acid sequence shown in SEQ ID NO: 3 (variant of subtilisin 309). Protease4 has the amino acid sequence shown in SEQ ID NO: 4 (subtilisin BPN′).
Various peptide aldehydes were produced, all with a purity >80%. The peptide aldehydes were dissolved in DMSO to a concentration of 10 mg/ml before use.
(§2) To detergent A from Example 1, the following amount of enzyme and different inhibitors (peptide aldehydes) were added, all samples normalized to 100 g of detergent. […] Three subtilisin proteases were used: Protease1, Protease2, and Protease4, all in concentration of 0.04 g active enzyme protein per gram of enzyme solution.
(§3) The detergents were placed in closed glasses at 37° C. for 2 weeks. Residual activity of protease was measured (by comparison to a reference stored at −18° C.) using standard enzyme analytical method (protease activity measured by hydrolysis of N,N-dimethylcasein at 40° C., pH=8.3).

[3] = molecular target: T1, Protease2 (variant of subtilisin 309) (Artificial sequence); assay: cell-based or functional assay
T1 chain: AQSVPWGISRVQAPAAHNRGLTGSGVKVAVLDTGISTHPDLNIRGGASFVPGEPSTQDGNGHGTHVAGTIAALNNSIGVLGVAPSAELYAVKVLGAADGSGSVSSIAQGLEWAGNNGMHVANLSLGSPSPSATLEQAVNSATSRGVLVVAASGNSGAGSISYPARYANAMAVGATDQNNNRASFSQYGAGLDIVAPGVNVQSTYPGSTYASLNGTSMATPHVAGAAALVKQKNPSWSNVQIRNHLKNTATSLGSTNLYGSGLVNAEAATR

[4] = molecular target: T2, Protease1 (subtilisin 309) (Bacillus lentus); assay: cell-based or functional assay
T2 chain: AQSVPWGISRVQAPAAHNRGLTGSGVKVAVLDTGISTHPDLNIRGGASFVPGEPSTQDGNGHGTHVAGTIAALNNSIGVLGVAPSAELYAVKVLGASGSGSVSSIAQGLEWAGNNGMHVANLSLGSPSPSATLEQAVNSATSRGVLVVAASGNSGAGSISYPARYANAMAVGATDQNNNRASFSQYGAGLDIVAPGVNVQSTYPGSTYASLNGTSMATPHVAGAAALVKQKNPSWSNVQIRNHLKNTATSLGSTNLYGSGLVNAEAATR

[5] = molecular target: Protease3 (variant of subtilisin 309) (Lederbergia lenta, UniProt P29600, INS97E); assay: Storage stability of Protease3 in liquid ADW detergent (residual protease activity, N,N-dimethylcasein hydrolysis); type: biochemical; details: Protease3, no inhibitor
Chain of Protease3 (variant of subtilisin 309) (P29600 other isoform, or with tags, fused parts or gaps INS97E): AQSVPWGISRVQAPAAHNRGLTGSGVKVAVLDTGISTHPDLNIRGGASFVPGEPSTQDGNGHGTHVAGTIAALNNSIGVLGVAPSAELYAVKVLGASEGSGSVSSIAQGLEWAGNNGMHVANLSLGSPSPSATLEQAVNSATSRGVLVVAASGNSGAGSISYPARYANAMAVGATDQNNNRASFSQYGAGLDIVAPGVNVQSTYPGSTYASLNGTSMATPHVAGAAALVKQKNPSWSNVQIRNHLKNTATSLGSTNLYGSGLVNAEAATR
Protocol: as §1, with “Protease2 has the amino acid sequence shown in SEQ ID NO: 2 (variant of subtilisin 309). Protease3 has the amino acid sequence shown in SEQ ID NO: 3 (variant of subtilisin 309).” left out
(§4) The peptide aldehyde hydrosulfite adduct described above was dissolved in 40% propylene glycol and water was added to make a 24% w/w solution of the adduct.
(§5) [formula] […] Protease2 and Protease3 were used in concentrations of 0.04 g active enzyme protein per gram of enzyme solution.
as §3

[6] = molecular target: Protease2 (variant of subtilisin 309) (Lederbergia lenta, UniProt P29600, DUP96-96/S97D); assay: Storage stability of Protease2 in liquid ADW detergent (residual protease activity, N,N-dimethylcasein hydrolysis); type: biochemical; details: Protease2, no inhibitor
Protocol: as §1, with “Protease2 has the amino acid sequence shown in SEQ ID NO: 2 (variant of subtilisin 309). Protease3 has the amino acid sequence shown in SEQ ID NO: 3 (variant of subtilisin 309).” left out
as §4, §5, §3, §2

[7] = molecular target: T3, Protease1 (subtilisin 309) (Lederbergia lenta, UniProt P29600); assay: Storage stability of Protease1 in liquid ADW detergent (residual protease activity, N,N-dimethylcasein hydrolysis); type: biochemical; details: Protease1, no inhibitor, Detergent A, Example 2
T3 sequence (P29600 1-269): T2 chain
Protocol: as §1, with “Protease2 has the amino acid sequence shown in SEQ ID NO: 2 (variant of subtilisin 309). Protease3 has the amino acid sequence shown in SEQ ID NO: 3 (variant of subtilisin 309).” left out
as §2, §3

[8] = molecular target: T4, Protease4 (subtilisin BPN′) (Artificial sequence); assay: cell-based or functional assay
T4 chain: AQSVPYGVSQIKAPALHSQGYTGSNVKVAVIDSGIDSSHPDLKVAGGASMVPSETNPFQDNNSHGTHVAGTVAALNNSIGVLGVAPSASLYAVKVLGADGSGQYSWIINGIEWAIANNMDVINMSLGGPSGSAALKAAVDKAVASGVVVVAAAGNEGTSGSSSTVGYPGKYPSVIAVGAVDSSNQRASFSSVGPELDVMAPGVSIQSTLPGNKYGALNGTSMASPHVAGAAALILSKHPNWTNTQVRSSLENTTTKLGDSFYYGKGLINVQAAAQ

CC(O)(P(=O)(O)O)P(=O)(O)O [HEDP, 1-Hydroxy Ethylidene-1,1-Diphosphonic Acid]
Log KCa [1]: 6

O=P(O)(O)CN(CP(=O)(O)O)CP(=O)(O)O [NTMP, Nitrilo trimethylene phosphonic acid]
Log KCa [1]: 7.6

O=C([O-])[O-].[Na+].[Na+] [Carbonate, sodium carbonate]
Log KCa [1]: 7.8

CC(C(=O)O)N(CC(=O)O)CC(=O)O (stereo not drawn) [MGDA, methylglycinediacetic acid]
Log KCa [1]: 7

O=C([O-])CC[C@@H](C(=O)[O-])N(CC(=O)[O-])CC(=O)[O-].[Na+].[Na+].[Na+].[Na+] [GLDA, L-glutamic acid N,N-diacetic acid tetra sodium salt]
Log KCa [1]: 5.2

O=C(O)CN(CC(=O)O)CC(=O)O [NTA, Nitrilotriacetic acid]
Log KCa [1]: 6.4

O=P(O)(O)CN(CP(=O)(O)O)CP(=O)(O)O [AMP, Amino-tris-(methylene-phosphonic acid)]
Log KCa [1]: 1.7

O=C(O)CN(CCN(CC(=O)O)CC(=O)O)CC(=O)O [EDTA, Ethylenediaminetetraacetic acid]
Log KCa [1]: 10.7

O=P(O)(O)OP(=O)(O)OP(=O)(O)O [STPP, sodium tripolyphosphate]
Log KCa [1]: 5.36

O=C(O)CC(NCCNC(CC(=O)O)C(=O)O)C(=O)O (mixture of isomers) [EDDS, ethylenediaminedisuccinic acid]
Log KCa [1]: 4.6

O=C(O)CC(O)(CC(=O)O)C(=O)O [Citric acid]
Log KCa [1]: 3.5

O=P(O)(O)CN(CCN(CP(=O)(O)O)CP(=O)(O)O)CCN(CP(=O)(O)O)CP(=O)(O)O [DTPMP, Diethylenetriamine Penta(Methylene Phosphonic acid)]
Log KCa [1]: 7.1

Moc-Val-Ala-Leu-H (Moc-Val-Ala-Leu-{aldehyde′}; reading uncertain; also: printed as Moc-Val-Ala-Leu-H) [peptide aldehyde, Moc is methoxycarbonyl]
Residual protease activity after two weeks at 37° C. ([2]; Protease4 with 3.3 mg peptide aldehyde/100 g (mole ratio 3.2)): 57%

O=C(O)CC(NC(CC(=O)O)C(=O)O)C(=O)O (stereo not drawn) [IDS, iminodisuccinic acid]
Log KCa [1]: 5.2

O=P(O)(O)OP(=O)(O)O [Pyrophosphate]
Log KCa [1]: 5

B1: Protease4: subtilisin protease, SEQ ID NO: 4 (subtilisin BPN′) (protein)
chain: T4 chain
modifications: BPN′ variant
Residual protease activity after two weeks at 37° C. ([2]; Protease4, no inhibitor): 5%

Cbz-Gly-Ala-Tyr-aldehyde (also: C-terminal aldehyde on Tyr) [Cbz-Gly-Ala-Tyr-H]
Residual protease activity after two weeks at 37° C. [3]: 86% | Residual protease activity after two weeks at 37° C. [4]: 81%

B2: Protease3: subtilisin protease, SEQ ID NO: 3 (variant of subtilisin 309) (protein)
chain: T1 chain with A97S, D98E
modifications: variant of SEQ ID NO 1
Residual protease activity after two weeks at 37° C. ([5]; Detergent A (invention)): 6% | Residual protease activity after two weeks at 37° C. ([5]; Detergent B (invention)): 44% | Residual protease activity after two weeks at 37° C. ([5]; Detergent C (reference)): 74%

B3: Protease2: subtilisin protease, SEQ ID NO: 2 (variant of subtilisin 309) (protein)
chain: T1 chain
modifications: variant of SEQ ID NO 1
Residual protease activity after two weeks at 37° C. ([6]; Detergent A (invention), Example 1): 1% | Residual protease activity after two weeks at 37° C. ([6]; Detergent A, Example 2): 1% | Residual protease activity after two weeks at 37° C. ([6]; Detergent B (invention), Example 1): 10% | Residual protease activity after two weeks at 37° C. ([6]; Detergent C (reference), Example 1): 76%

B4: Protease1: subtilisin protease, amino acid sequence SEQ ID NO: 1 (subtilisin 309) (protein, listed as Bacillus lentus)
chain: T2 chain
Residual protease activity after two weeks at 37° C. [7]: 25%

Moc-Val-Ala-Leu-aldehyde (also: C-terminal aldehyde on Leu) [Moc-Val-Ala-Leu-H]
Residual protease activity after two weeks at 37° C. [8]: 57%
